Assay results as given in publication PMC7067379, “Mapping the S1 and S1’ subsites of cysteine proteases with new dipeptidyl nitrile inhibitors as trypanocidal agents” (PLoS Neglected Tropical Diseases, 2020).
Where two headings read alike, the source gives them in different places.

How the values were obtained:
[1] = molecular target: Leishmania mexicana CPB (LmCPB) (Leishmania mexicana, UniProt P36400); assay: LmCPB enzyme inhibition; type: biochemical; conditions: for difference in pKi, LmCPB: sign not given, direction by cell colour or wording
Experimental: (§1) Enzyme inhibition studies for Cz and LmCPB were performed as previously described for Cz. The experimental procedures are described in the Supporting Information (see chapter S3). Cathepsins B, L, S were assayed as reported.

[2] = molecular target: T1, Human recombinant cathepsin K (Homo sapiens, UniProt P43235); assay: Cathepsin K assay; type: biochemical; conditions: SD lower than 15%; read-out: pKi CatK (converted)
T1 sequence (P43235 115-329): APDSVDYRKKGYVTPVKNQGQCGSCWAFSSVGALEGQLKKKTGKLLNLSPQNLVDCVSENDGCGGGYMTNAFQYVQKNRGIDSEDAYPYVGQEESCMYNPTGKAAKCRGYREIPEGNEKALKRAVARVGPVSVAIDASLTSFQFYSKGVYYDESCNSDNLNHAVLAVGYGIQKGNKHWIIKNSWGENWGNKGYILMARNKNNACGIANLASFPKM
Experimental: Human recombinant cathepsin K was assayed on a FLUOSTAR Optima plate reader at 25 °C with an excitation wavelength of 360 nm and an emission wavelength of 440 nm on a 96 well plate. The enzyme solution (23 μg/mL in 50 mM sodium acetate pH 5.5, 50 mM NaCl, 0.5 mM EDTA, 5 mM DTT) was diluted 1:100 with assay buffer (100 mM sodium citrate buffer pH 5.0, 100 mM NaCl, 1 mM EDTA, 0.01% CHAPS) containing 5 mM DTT and was then incubated at 37 °C for 30 min for activation. A 1.5 mM stock solution of the substrate Z-Leu-Arg-AMC was prepared in DMSO. […] The assay was performed with a final concentration of cathepsin K of 1.73 ng/mL. Stock solutions of inhibitors were prepared in DMSO. The final DMSO concentration was 2% (4 μL). Into a well containing 194.5 μL assay buffer, 0.8 μL of the fluorogenic substrate, DMSO and inhibitor solution (3.2 μL) were added. Upon addition of cathepsin K (1.5 μL), the measurement was started and followed for 20 min.

[3] = molecular target: cathepsin L (CatL) (Homo sapiens, UniProt P07711); assay: Cathepsin L enzyme inhibition; type: biochemical; conditions: for Ki: SD lower than 15%, read-out: pKi CatL (converted)
[4] = test system: T. cruzi Tulahuen LacZ strain, intracellular amastigote forms; assay: In vitro trypanocidal activity on intracellular amastigote forms (Tulahuen strain); type: cell-based, Trypanosoma cruzi; conditions: for EC50: Trypanosoma cruzi, TULAHUEN; for SI (selective index): from EC50 (T. cruzi) and CC50 (LLCMK2)
Experimental: Cells were evaluated in 96-well plates. Cells from the LLCMK2 lineage were plated at a concentration of 5x10^4 cells mL^-1. Trypomastigote forms of the Tulahuen LacZ strain were added at a concentration of 5×10^5 parasites mL^-1 and placed in the incubator at 37°C with 5% CO2 for 24 h. After the incubation period, the trypomastigote forms present were removed by successive washes with PBS, remaining only as intracellular amastigote forms. Compounds were added at different concentrations (1.95 μM to 250 μM serial dilutions) and incubated for 72 h. At the end of this period, the substrate CPRG (chlorophenol red β-D-galactopyranoside, 400 μM in 0.3% Triton X-100, pH 7.4) was added. […] Benznidazole was used as a positive control in the same concentrations as the substances, and DMSO as a negative control. Compounds were solubilized in DMSO. The selectivity index (SI) was calculated using the formula: […]. All statistical analyses were done with the program GraphPad Prism v.5.

[5] = Mammalian cytotoxicity assay (MTT); type: cell-based; conditions: rhesus monkey, LLCMK2 cells;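 note: Read-out is absorbance at 570 nm of formazan taken up in DMSO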
Experimental: LLCMK2 cells were cultured in 96-well plates at a concentration of 5 x 10^4 cells/ml. After 48 h, the plates were washed twice with PBS and 200 μL RPMI medium was added with serial dilutions of the compounds and benznidazole (1.95 μM to 250 μM) in triplicate. After 72 h at 37 °C, the cytotoxic activity of the compounds was determined by the classical MTT [3- (4,5-dimethylthiazol-2-yl) -2,5-diphenyltetrazolium bromide] method. Briefly, 50 μL MTT dissolved in PBS (2.0 mg mL^-1) was added to each well and the plates were incubated for 4 h at 37 °C. The formed formazan crystals were dissolved with DMSO (50 μL/well) and the absorbance of the samples was measured by spectrophotometer at 570 nm after 30 min.

[6] = molecular target: cathepsin B (CatB) (Homo sapiens, UniProt P07858); assay: Cathepsin B enzyme inhibition; type: biochemical; conditions: for Ki: SD lower than 15%, read-out: pKi CatB (converted)
[7] = molecular target: cathepsin S (CatS) (Homo sapiens, UniProt P25774); assay: Cathepsin S enzyme inhibition; type: biochemical; conditions: SD lower than 15%; read-out: pKi CatS (converted)
Experimental: as §1

[8] = molecular target: recombinant cruzain (Cz) (Trypanosoma cruzi, UniProt P25779); assay: Cruzain enzyme inhibition; type: biochemical; conditions: for difference in pKi, Cz: sign not given, direction by cell colour or wording
Experimental: as §1

[9] = SD lower than 15%, read-out: pKi LmCPB (converted)
[10] = S1 Table, maximum concentration used 250 µM, read-out: EC50 T. cruzi
[11] = T. cruzi amastigote form, S1 Table, read-out: pEC50 (converted)
[12] = S1 Table, maximum concentration used 250 µM, read-out: CC50
[13] = 10 μM, replicates = 2, n.i. = no inhibition observed at 10 μM
[14] = SD lower than 15%, read-out: pKi Cz (converted)
[15] = 72 h, amastigote, Tulahuen strain, 72 h, Table 2, read-out: EC50 trypanocidal activity
[16] = LLCMK2, 72 h, MTT, Table 2, read-out: CC50 cytotoxicity

Sequence of cathepsin S (CatS) (P25774 115-331): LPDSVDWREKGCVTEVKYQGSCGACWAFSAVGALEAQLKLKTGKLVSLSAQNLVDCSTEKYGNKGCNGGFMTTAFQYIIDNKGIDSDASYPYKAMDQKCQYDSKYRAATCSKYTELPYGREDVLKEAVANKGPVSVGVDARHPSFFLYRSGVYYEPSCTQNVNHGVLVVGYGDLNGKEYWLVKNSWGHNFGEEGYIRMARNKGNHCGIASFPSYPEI
Sequence of recombinant cruzain (Cz) (P25779 123-337): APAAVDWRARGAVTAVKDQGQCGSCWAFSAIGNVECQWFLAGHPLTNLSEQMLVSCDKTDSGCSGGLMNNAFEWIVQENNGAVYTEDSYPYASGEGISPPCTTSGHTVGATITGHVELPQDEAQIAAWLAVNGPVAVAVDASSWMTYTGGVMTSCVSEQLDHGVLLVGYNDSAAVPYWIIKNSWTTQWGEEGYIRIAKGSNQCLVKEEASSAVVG
Sequence of cathepsin L (CatL) (P07711 114-333): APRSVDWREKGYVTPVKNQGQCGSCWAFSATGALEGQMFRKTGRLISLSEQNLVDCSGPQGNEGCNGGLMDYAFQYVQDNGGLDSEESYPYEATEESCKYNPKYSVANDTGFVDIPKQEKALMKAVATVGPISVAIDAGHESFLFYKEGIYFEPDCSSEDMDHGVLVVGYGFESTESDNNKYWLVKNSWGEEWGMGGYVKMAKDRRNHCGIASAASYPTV
Sequence of Leishmania mexicana CPB (LmCPB) (P36400 126-443): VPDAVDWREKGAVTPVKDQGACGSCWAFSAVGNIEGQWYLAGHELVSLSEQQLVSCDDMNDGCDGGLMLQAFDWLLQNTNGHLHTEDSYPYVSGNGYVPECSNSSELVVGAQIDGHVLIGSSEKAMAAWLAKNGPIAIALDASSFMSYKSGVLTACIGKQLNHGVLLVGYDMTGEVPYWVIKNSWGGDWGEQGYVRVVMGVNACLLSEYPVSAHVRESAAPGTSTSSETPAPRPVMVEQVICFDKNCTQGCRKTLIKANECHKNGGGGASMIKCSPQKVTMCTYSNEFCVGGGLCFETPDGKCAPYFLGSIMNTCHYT

Structure (SMILES)	Ki [1, 9]	Ki [2]	Ki [3]	EC50 [4, 10]	EC50 [4, 11]	melting point	CC50 at 72 h [5, 12]	Ki [7]	Ki [8, 14]	Ki [6]	EC50 [4, 15]	SI (selective index) ([4]; Table 2)	CC50 at 72 h [5, 16]	other results
CC(C)C[C@H](NC(=O)c1ccc(N)nc1)C(=O)NC1(C#N)CC1 [Compound 17, (S)-6-Amino-N-(1-((1-cyanocyclopropyl)amino)-4-methyl-1-oxopentan-2-yl)nicotinamide]	158 nM	10 nM	316 nM	> 100000 nM	> 100000 nM	100 to 101 °C	> 100000 nM	25.1 nM	79.4 nM	–	–	–	–	remaining activity (%) at 10 μM, CatB [6, 13]: n.i.^c
CC(C)C[C@H](NC(=O)c1cnc2[nH]ccc2c1)C(=O)NC1(C#N)CC1 [Compound 18, (S)-N-(1-((1-Cyanocyclopropyl)amino)-4-methyl-1-oxopentan-2-yl)-1H-pyrrolo[2,3-b]pyridine-5-carboxamide]	–	2 nM	79.4 nM	> 100000 nM	> 100000 nM	79 to 80 °C	> 100000 nM	50.1 nM	–	31600 nM	–	–	–	Ki [1]: 63.1 nM; difference in pKi, LmCPB ([1]; relative to compound 11): -0.5; Ki [8]: 20 nM; difference in pKi, Cz ([8]; relative to compound 11): -0.7
C[C@@H](O)[C@H](NC(=O)c1cc(C(C)(C)C)nn1C)C(=O)NC1(C#N)CC1 [Compound 19, 3-(tert-Butyl)-N-((2S,3R)-1-((1-cyanocyclopropyl)amino)-3-hydroxy-1-oxobutan-2-yl)-1-methyl-1H-pyrazole-5-carboxamide]	–	3160 nM	6310 nM	> 100000 nM	> 100000 nM	201 to 202 °C	> 100000 nM	10000 nM	–	25100 nM	–	–	–	remaining activity at 10 µM ([1]; 10 μM, replicates = 2): 67%; difference in pKi, CatL ([3]; relative to compound 11, sign not given, direction by cell colour or wording): 0.5; remaining activity at 10 µM ([8]; 10 μM, replicates = 2): 51%
Cn1nc(C(C)(C)C)cc1C(=O)N[C@@H](Cc1ccccc1)C(=O)N[C@H](C#N)Cc1ccccc1 [Compound 50, 3-(tert-Butyl)-N-((S)-1-(((S)-1-cyano-2-phenylethyl)amino)-1-oxo-3-phenylpropan-2-yl)-1-methyl-1H-pyrazole-5-carboxamide]	15.8 nM	501 nM	3.16 nM	63500 nM	63100 nM	89 to 90 °C	–	50.1 nM	20 nM	31600 nM	63300 ± 5740 nM	1.31	83100 ± 6850 nM	difference in pKi, LmCPB ([1]; relative to compound 9): 0.7; difference in pKi, CatB ([6]; relative to compound 9, sign not given, direction by cell colour or wording): 0.3; difference in pKi, Cz ([8]; relative to compound 9): 0.4
Cn1nc(C(C)(C)C)cc1C(=O)N[C@@H](Cc1ccccc1)C(=O)N[C@@H](C#N)Cc1ccccc1 [Compound 51, 3-(tert-Butyl)-N-((S)-1-(((R)-1-cyano-2-phenylethyl)amino)-1-oxo-3-phenylpropan-2-yl)-1-methyl-1H-pyrazole-5-carboxamide]	794 nM	2510 nM	126 nM	–	7940 nM	98 to 99 °C	42300 nM	1260 nM	501 nM	–	8600 ± 530 nM	4.9	42300 ± 3940 nM	remaining activity at 10 µM [6, 13]: 94%
CC(C)C[C@@H](C#N)NC(=O)[C@H](Cc1ccccc1)NC(=O)c1cc(C(C)(C)C)nn1C [Compound 52, 3-(tert-Butyl)-N-((S)-1-(((S)-1-cyano-3-methylbutyl)amino)-1-oxo-3-phenylpropan-2-yl)-1-methyl-1H-pyrazole-5-carboxamide]	39.8 nM	200 nM	5.01 nM	–	3980 nM	81 to 82 °C	–	126 nM	31.6 nM	7940 nM	4100 ± 470 nM	–	97900 ± 6520 nM	fold increase in trypanocidal potency ([4]; compared with compound 9): 17.5 fold
Cn1nc(C(C)(C)C)cc1C(=O)N[C@@H](Cc1ccccc1)C(=O)N[C@H](C#N)Cc1cccc(Cl)c1 [Compound 54, 3-(tert-Butyl)-N-((S)-1-(((S)-2-(3-chlorophenyl)-1-cyanoethyl)amino)-1-oxo-3-phenylpropan-2-yl)-1-methyl-1H-pyrazole-5-carboxamide]	–	501 nM	5.01 nM	–	15800 nM	132 to 133 °C	–	79.4 nM	–	12600 nM	15800 ± 1430 nM	2.83	44700 ± 5240 nM	Ki [1]: 31.6 nM; Ki [8]: 31.6 nM
C[C@@H](OCc1ccccc1)[C@@H](C#N)NC(=O)[C@H](Cc1ccccc1)NC(=O)c1cc(C(C)(C)C)nn1C [Compound 56, N-((S)-1-(((1R,2R)-2-(Benzyloxy)-1-cyanopropyl)amino)-1-oxo-3-phenylpropan-2-yl)-3-(tert-butyl)-1-methyl-1H-pyrazole-5-carboxamide]	316 nM	2000 nM	100 nM	> 100000 nM	> 100000 nM	115 to 116 °C	> 100000 nM	1000 nM	501 nM	6310 nM	–	–	–	EC50 ([4]; amastigote forms of T. cruzi (Tuhaluen strain), Figs 12-14, unit inferred): > 100000 nM; difference in pKi, Cz ([8]; relative to compound 9): -1.0
